Data set [1] relates to HT29. The data set can be described thus: Cell viability, CellTiter-Glo. It counts as cell-based, human. The note with it: for IC50: Homo sapiens, HT-29, 72 h; for cell proliferation, oleate / palmitate supplement: HT29 cells. The protocol: (§1) For SCD1 small molecule inhibitor experiment, cells were treated with indicated concentration of A37062 (Abbott compound 4c) or G02447171.1 (Daichii compound 24) in DMSO or DMSO alone for 48-72 hr. Cell viability was assessed with CellTiter-Glo at 72 hr post treatment (Promega). Activation of caspase 3 and caspase 7 was measured with the Caspase-Glo 3/7 assay kit at 48 hr after treatment (Promega). Values are presented as mean+/−SD of quadruplets. Data are representative of at least three independent experiments.
(§2) To investigate the effect of SCD1 small molecule antagonists on cancer cell lines were treated with serially diluted A37062 for 72 hr, and […] cell viability was measured by CellTiter-Glo (Promega) as described above.
(§3) To investigate the effect of additional SCD1 small molecule antagonists, HT29 and HCT15 were treated with serially diluted small molecule inhibitors RG1-14 and G02447171 (G7171) for 72 hr, and cell viability was measured by CellTiter-Glo (Promega). The specificity and selectivity of the SCD1 small molecule inhibitors was also evaluated.

Data set [2] deals with HCT-15. The experiment in a line: Cell viability, CellTiter-Glo. It counts as cell-based, human. The note with it: for IC50: Homo sapiens, HCT-15, 72 h; for cell proliferation, oleate / palmitate supplement: HCT15 cells. The protocol:
as §1, §2, §3
For orientation: ATP-based viability assays read luminescence as a measure of living cells.

Data set [3] has as its target T1, Δ6 desaturase (Homo sapiens, UniProt O95864).
T1 sequence (O95864 1-444): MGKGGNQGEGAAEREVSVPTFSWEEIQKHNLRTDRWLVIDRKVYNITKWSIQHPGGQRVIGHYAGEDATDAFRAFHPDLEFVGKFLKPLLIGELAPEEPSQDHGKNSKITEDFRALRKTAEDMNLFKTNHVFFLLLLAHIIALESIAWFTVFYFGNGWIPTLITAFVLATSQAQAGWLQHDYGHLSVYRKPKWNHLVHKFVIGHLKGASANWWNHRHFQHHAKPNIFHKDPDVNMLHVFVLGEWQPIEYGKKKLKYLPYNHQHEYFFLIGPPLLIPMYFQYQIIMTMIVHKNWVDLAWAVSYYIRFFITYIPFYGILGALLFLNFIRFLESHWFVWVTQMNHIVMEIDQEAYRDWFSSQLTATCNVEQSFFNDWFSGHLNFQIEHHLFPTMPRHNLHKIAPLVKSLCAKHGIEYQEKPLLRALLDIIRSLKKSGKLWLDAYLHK
The following applies: cited from earlier work.

For data set [4] the following is noted: 30 min incubation; cited from earlier work.
For data set [5] the following is noted: 30 min incubation; cited from earlier work. This is another data set of the same source.
Data set [6] addresses Δ5 desaturase (Homo sapiens, UniProt O60427). The following applies: cited from earlier work.
In data set [7] the target is T2, SCD1 (Homo sapiens, UniProt O00767).
T2 sequence (O00767 1-359): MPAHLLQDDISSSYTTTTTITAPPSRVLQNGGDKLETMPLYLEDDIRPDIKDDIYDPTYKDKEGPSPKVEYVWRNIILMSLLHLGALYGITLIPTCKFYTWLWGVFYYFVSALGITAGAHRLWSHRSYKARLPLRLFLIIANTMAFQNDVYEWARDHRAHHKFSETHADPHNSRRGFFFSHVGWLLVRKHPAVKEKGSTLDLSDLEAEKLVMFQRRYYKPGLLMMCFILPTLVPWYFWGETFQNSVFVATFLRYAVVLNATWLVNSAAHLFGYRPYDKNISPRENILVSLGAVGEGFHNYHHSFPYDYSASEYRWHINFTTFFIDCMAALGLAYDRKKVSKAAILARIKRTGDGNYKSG
The following applies: cited from earlier work.

Data set [8] addresses T2, SCD1. The following applies: cited from earlier work; for IC50: human SCD1.
The target in data set [9] is T3, rat SCD1 (Rattus norvegicus, UniProt P07308).
T3 sequence (P07308 1-358): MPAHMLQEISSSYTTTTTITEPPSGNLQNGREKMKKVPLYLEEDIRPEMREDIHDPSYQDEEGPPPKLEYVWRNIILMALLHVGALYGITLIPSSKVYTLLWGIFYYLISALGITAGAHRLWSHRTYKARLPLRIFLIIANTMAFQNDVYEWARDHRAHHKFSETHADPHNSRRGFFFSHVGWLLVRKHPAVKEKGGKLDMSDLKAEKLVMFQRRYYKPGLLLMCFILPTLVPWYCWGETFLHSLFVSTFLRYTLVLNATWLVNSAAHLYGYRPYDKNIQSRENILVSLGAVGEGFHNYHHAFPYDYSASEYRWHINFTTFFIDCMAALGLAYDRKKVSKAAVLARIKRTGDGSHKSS
The following applies: cited from earlier work.

Consider 20 compounds from patent publication US9358250B2, “Methods of using SCD1 antagonists” (Genentech, Inc., priority 2011, dated 2016).

SMILES strings stand for the structures. Read-outs that look alike come from different tables or passages of the source.

Δ5 desaturase, sequence (O60427 whole entry, stated change not applied): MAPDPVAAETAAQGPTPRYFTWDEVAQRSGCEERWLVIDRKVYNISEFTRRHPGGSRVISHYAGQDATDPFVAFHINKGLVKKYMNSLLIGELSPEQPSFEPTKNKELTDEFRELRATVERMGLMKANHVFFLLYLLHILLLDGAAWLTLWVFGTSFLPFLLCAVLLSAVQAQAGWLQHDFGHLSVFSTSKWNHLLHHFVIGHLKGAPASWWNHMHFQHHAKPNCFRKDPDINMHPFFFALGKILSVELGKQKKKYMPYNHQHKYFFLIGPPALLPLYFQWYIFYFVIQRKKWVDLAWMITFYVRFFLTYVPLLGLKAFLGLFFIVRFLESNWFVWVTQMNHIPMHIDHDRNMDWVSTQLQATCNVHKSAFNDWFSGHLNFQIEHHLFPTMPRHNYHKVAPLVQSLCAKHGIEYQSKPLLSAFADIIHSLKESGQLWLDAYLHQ

In the case of `O=c1cc(N2CCN(Cc3cc(Cl)ccc3[N+](=O)[O-])CC2)nc[nH]1` [RG7], the half-maximal inhibitory concentration (IC50) (usually the concentration that gives 50% inhibition) stood at 89.7 nM in data set [1] (Experiment 1 HT29, 72 hr); 272 nM in [1] (Experiment 2 HT29, 72 hr); 177 nM in data set [2] (Experiment 1 HCT15, 72 hr); 495 nM in data set [2] (Experiment 2 HCT15, 72 hr).
In the same order, the values of `O=c1cc(N2CCN(Cc3cc(OC(F)(F)F)ccc3O)CC2)nc[nH]1` [RG14] are 689 nM, 323 nM, 24.6 nM and 53 nM.
On to `COc1ccc(-c2nc3ccc(NCc4ccc(Cl)c(C(F)(F)F)c4)cc3n(CCNC(C)=O)c2=O)cc1` [Compound 54], for which the “selectivity against Δ6 desaturase” value in data set [3] is “selective”. The “stability in RLM” value in data set [4] is recorded as “greater than 50%”. Also, the “stability in HLM” value in [5] is listed as “greater than 50%”. For the same compound, the “selectivity against Δ5 desaturase” value in data set [6] was “selective”.
On to `O=c1cc(N2CCN(Cc3cccc(Cl)c3O)CC2)nc[nH]1` [RG5], for which the IC50 was 277 nM in data set [1] (Experiment 1 HT29, 72 hr); 328 nM in data set [1] (Experiment 2 HT29, 72 hr); 152 nM in data set [2] (Experiment 1 HCT15, 72 hr); 383 nM in [2] (Experiment 2 HCT15, 72 hr).
As to `Cc1cc(Cl)cc(CN2CCN(c3cc(=O)[nH]cn3)CC2)c1O` [RG12], the IC50 in data set [1] (Experiment 1 HT29, 72 hr) came to 378 nM; in data set [1] (Experiment 2 HT29, 72 hr) it was 83.5 nM; in [2] (Experiment 1 HCT15, 72 hr) it was 1 nM; in data set [2] (Experiment 2 HCT15, 72 hr), 4.33 nM.
`Cc1nc(-n2ccc(OCc3ccc(F)cc3)cc2=O)sc1C(=O)NCc1ccc(Cl)nc1` [Compound 18]: in data set [7], the half-maximal inhibitory concentration (IC50) is 50 nM.
In the case of `Cc1nnc(-c2ccc(N3CCC(Oc4cc(F)ccc4Cl)CC3)nn2)o1` [Compound 49], the IC50 in [8] is 37 nM.
On to `COc1ccc(-c2nc3cnc(NCc4ccc(Cl)c(Cl)c4)nc3n(CCNC(C)=O)c2=O)cc1` [Compound 51], for which the IC50 was 280 nM in [8] and 250 nM in data set [9].
Regarding `Cc1c(Br)cccc1CN1CCN(c2cc(=O)[nH]cn2)CC1` [RG13], the IC50 in data set [1] (Experiment 1 HT29, 72 hr) turned out to be 129 nM; in data set [1] (Experiment 2 HT29, 72 hr), 191 nM; in data set [2] (Experiment 1 HCT15, 72 hr), 288 nM; in data set [2] (Experiment 2 HCT15, 72 hr), 274 nM.
As for `O=c1cc(N2CCN(Cc3cc(Cl)ccc3O)CC2)nc[nH]1` [RG6], the IC50 was found to be 330 nM in data set [1] (Experiment 1 HT29, 72 hr); 280 nM in data set [1] (Experiment 2 HT29, 72 hr); 86.9 nM in data set [2] (Experiment 1 HCT15, 72 hr); 169 nM in data set [2] (Experiment 2 HCT15, 72 hr).
For the compound `Cc1nc(-n2ccc3c(O)cccc3c2=O)sc1C(=O)NCc1ccccc1` [Compound 19], the 50% inhibitory concentration (IC50) in data set [7] was 30 nM.
Consider `O=c1cc(N2CCN(Cc3cc(Cl)cc(Br)c3O)CC2)nc[nH]1` [RG3], for which the “cell proliferation, oleate / palmitate supplement” value in data set [1] and in data set [2] was “suppress cell proliferation in a fatty acid desaturation-dependent manner” each time. Further, the 50% inhibitory concentration (IC50) in data set [1] (Experiment 1 HT29, 72 hr) turned out to be 42.6 nM; in data set [1] (Experiment 2 HT29, 72 hr), 14.5 nM; in data set [2] (Experiment 1 HCT15, 72 hr) it was 2.77 nM; in data set [2] (Experiment 2 HCT15, 72 hr) it was 8.22 nM.
As for `O=C(NCc1cccnc1)c1sc(N2CCN(Cc3ccc(F)cc3)C2=O)nc1C(F)(F)F` [Compound 21], the IC50 in data set [7] was 42 nM.
`O=c1cc(N2CCN(Cc3cc(Br)cc(Br)c3O)CC2)nc[nH]1` [RG8]: the “cell proliferation, oleate / palmitate supplement” value in [1] and in [2] was “suppress cell proliferation in a fatty acid desaturation-dependent manner” in each case. Also, the IC50 stood at 18.7 nM in data set [1] (Experiment 1 HT29, 72 hr); 8.13 nM in data set [1] (Experiment 2 HT29, 72 hr); 0.784 nM in data set [2] (Experiment 1 HCT15, 72 hr); 4.14 nM in data set [2] (Experiment 2 HCT15, 72 hr).
Take `O=c1cc(N2CCN(Cc3cc(I)ccc3O)CC2)nc[nH]1` [RG2]: the IC50 was found to be 683 nM in [1] (Experiment 1 HT29, 72 hr); 398 nM in [1] (Experiment 2 HT29, 72 hr); 58.1 nM in data set [2] (Experiment 1 HCT15, 72 hr); 122 nM in data set [2] (Experiment 2 HCT15, 72 hr).
Take `O=c1cc(N2CCN(Cc3cc(Cl)cc(Cl)c3O)CC2)nc[nH]1` [RG1]: the “cell proliferation, oleate / palmitate supplement” value in [1] and in [2] was “suppress cell proliferation in a fatty acid desaturation-dependent manner” throughout. The IC50 was 95.7 nM in [1] (Experiment 1 HT29, 72 hr); 33.5 nM in [1] (Experiment 2 HT29, 72 hr); 5.84 nM in [2] (Experiment 1 HCT15, 72 hr); 13.4 nM in data set [2] (Experiment 2 HCT15, 72 hr).
Turning to `O=C(NCc1cccnc1)c1sc(N2CCN(Cc3ccc(F)cc3)C2=O)nc1C(F)(F)F` [Compound 23], the half-maximal inhibitory concentration (IC50) in data set [7] was 10 nM.
As to `O=C1O[C@@H](CO)CN1c1ccc(N2CCC(Oc3ccccc3C(F)(F)F)CC2)nc1` [Compound 67], the “inhibition of human SCD1” value in data set [8] (at 10 μM) was 99%.
For `Cc1cccc(CN2CCN(c3cc(=O)[nH]cn3)CC2)c1O` [RG11], the IC50 in data set [1] (Experiment 1 HT29, 72 hr) was 243 nM; in [1] (Experiment 2 HT29, 72 hr), 266 nM; in [2] (Experiment 1 HCT15, 72 hr) it was 148 nM; in [2] (Experiment 2 HCT15, 72 hr), 416 nM.
In the same order, the values of `O=c1cc(N2CCN(Cc3cc(F)cc(F)c3O)CC2)nc[nH]1` [RG4] are 547 nM, 346 nM, 289 nM and 244 nM.
